The source of these data is patent US11414385B2, “Compounds and methods for treating, detecting, and identifying compounds to treat apicomplexan parasitic diseases” (The University of Chicago, priority 2015, dated 2022).

pEC50, pIC50: −log10 of the molar value. “Also recorded” adds a separate entry of the source. Read-outs that look alike come from different tables or passages of the source.

The subject of one data set is MDCK-MDR1 cells. The data set can be described thus: in vitro. The class given is in vitro ADME. Particulars: dog, MDCK-MDR1.
The subject of a further data set is P. falciparum Dd2. Kind of data set: SYBR Green drug sensitivity of Dd2 and cytochrome b / scDHODH lines. It counts as cell-based, Plasmodium falciparum. As for the experimental part: We used the following parasite line from the MR4 repository of the American Type Culture Collection (ATCC): Dd2 (MRA-156). Mutant Dd2 parasites harboring a G33A or G33V substitution in cytochrome b were as reported. Dd2 parasites with a G131 S mutation in cytochrome b and transgenic lines expressing a chromosomally integrated copy of the S. cerevisiae DHODH were utilized as previously described. Parasites were cultured by standard methods in RPMI media supplemented with 5% human O^+ serum and 0.25% AlbuMAX® II (Life Technologies 11021-045).
Drug susceptibility was measured using the SYBR Green method. Twelve point curves based on 2-fold dilutions of the test compound were carried out in triplicate each day and replicated on at least three different days. EC50 values were calculated using a nonlinear regression curve fit in Prism 6.0 for Mac (GraphPad Software, Inc.).

For data set [1], the system named is T. gondii bradyzoites (EGS strain). Kind of data set: EGS strain bradyzoite assay (cysts in HFF, dolichos/BAG1 staining). It counts as cell-based, Toxoplasma gondii. The settings on record: for pIC50: EGS strain. As for the experimental part:
(§1) HFF cells were grown in IMDM (1×, [+] glutamine, [+] 25 mM HEPES, [+] Phenol red, 10% FBS, [Gibco, Denmark]) on removable, sterile glass disks in the bottom of a clear, flat-bottomed 24-well plate. Cultures were infected with 3×10^4 parasites (EGS strain) per well, in 0.5 mL media and plate was returned to incubator at 37° C. overnight. The following day, the media was removed and clear IMDM and compounds were added to making various concentrations of the drug, to a total volume of 0.5 mL. Two wells were filled with media only, as a control. Plates were returned to the 37° C. incubator for 72 hours.
Efficacy was determined following fixation. Staining was used to determine the numbers of cysts in cultures without and with treatment with the test compounds. Cells were fixed using 4% paraformaldehyde and stained with Fluorescein-labeled Dolichos Biflorus Agglutinin, DAPI, and anti-BAG1, and anti-SAG1. Disks were removed and mounted onto glass slides and visualized using microscopy (Nikon Tl7). Slides were also scanned using a CRi Pannoramic Scan Whole Slide Scanner and viewed using Panoramic Viewer Software.
as §1, with “[gibco,” for “[Gibco,”, “2” for “Two”, “72 hours, and checked once every 24” for “72”, “hours. If tachyzoites were visible in the control before 72 hours, the cells were fixed and stained.” for “hours.”
Cells were fixed using 4% paraformaldehyde and stained with Fluorescein-labeled Dolichos Biflorus Agglutinin, DAPI, and BAG1. Disks were removed and mounted onto glass slides and visualized using microscopy (Nikon Tl7). Slides were scanned using a CRi Pannoramic Scan Whole Slide Scanner and viewed using Panoramic Viewer Software. Effects of the compounds were quantified by counting cysts in the controls and treated cells. Cysts and persisting organisms were counted in a representative field of view and then multiplied by a factor determined by the total area of the disk in order to estimate the number of cysts and organisms in each condition.
HFF cells were grown in IMDM (1×, [+] glutamine, [+] 25 mM HEPES, [+] Phenol red, 10% FBS, [gibco, Denmark]) on removable, sterile glass disks in the bottom of a clear, flat-bottomed 24-well plate. Cultures were infected with 3×10^4 parasites (EGS strain) per well, in 0.5 mL media and plate was returned to incubator at 37° C. overnight. The following day, the media was removed and clear IMDM and compounds were added to making various concentrations of the drug, to a total volume of 0.5 mL. 2 wells were filled with media only, as a control. Plates were returned to the 37° C. incubator for 72 hours, and checked once every 24 hours. If tachyzoites were visible in the control before 72 hours, the cells were fixed and stained. Cells were fixed using 4% paraformaldehyde and stained with Fluorescein-labeled Dolichos Biflorus Agglutinin, DAPI, and BAG1. Disks were removed and mounted onto glass slides and visualized using microscopy (Nikon Tl7). Slides were scanned using a CRi Pannoramic Scan Whole Slide Scanner and viewed using Panoramic Viewer Software. Effects of the compounds were quantified by counting cysts in the controls and treated cells. Cysts and persisting organisms were counted in a representative field of view and then multiplied by a factor determined by the total area of the disk in order to estimate the number of cysts and organisms in each condition. Data was collected using Gen5 software. IC50 was calculated by graphical analysis in Excel.

The subject of another data set is Dd2 parasites. The data set can be described thus: Isobologram drug combination assay (fixed ratio, FIC). The class given is cell-based, Plasmodium falciparum. The settings on record: Dd2, fixed ratios. As for the experimental part:
Isobologram experiments were performed in similar fashion utilizing the modified fixed ratio methodology. Briefly, MJM170 and either atovaquone or cycloguanil or BRD6323 were mixed at multiple fixed volumetric ratios (10:0, 8:2, 6:4, 4:6, 2:8, and 0:10) and then serially diluted in 12-point 2-fold dilutions and dispensed in triplicate to 384-well assay plates and replicated on three different days. EC50 values were calculated as above, and FICs were calculated for each drug combination as described^S76. Synergy was defined as an FIC <1.0, additivity as FIC=1.0, and antagonism as FIC >1.0.

Another data set deals with hERG (Homo sapiens, UniProt Q12809). Kind of data set: hERG profile. On the technique in general: hERG is a cardiac potassium channel; its block is linked to QT prolongation.
hERG, sequence (Q12809 whole entry): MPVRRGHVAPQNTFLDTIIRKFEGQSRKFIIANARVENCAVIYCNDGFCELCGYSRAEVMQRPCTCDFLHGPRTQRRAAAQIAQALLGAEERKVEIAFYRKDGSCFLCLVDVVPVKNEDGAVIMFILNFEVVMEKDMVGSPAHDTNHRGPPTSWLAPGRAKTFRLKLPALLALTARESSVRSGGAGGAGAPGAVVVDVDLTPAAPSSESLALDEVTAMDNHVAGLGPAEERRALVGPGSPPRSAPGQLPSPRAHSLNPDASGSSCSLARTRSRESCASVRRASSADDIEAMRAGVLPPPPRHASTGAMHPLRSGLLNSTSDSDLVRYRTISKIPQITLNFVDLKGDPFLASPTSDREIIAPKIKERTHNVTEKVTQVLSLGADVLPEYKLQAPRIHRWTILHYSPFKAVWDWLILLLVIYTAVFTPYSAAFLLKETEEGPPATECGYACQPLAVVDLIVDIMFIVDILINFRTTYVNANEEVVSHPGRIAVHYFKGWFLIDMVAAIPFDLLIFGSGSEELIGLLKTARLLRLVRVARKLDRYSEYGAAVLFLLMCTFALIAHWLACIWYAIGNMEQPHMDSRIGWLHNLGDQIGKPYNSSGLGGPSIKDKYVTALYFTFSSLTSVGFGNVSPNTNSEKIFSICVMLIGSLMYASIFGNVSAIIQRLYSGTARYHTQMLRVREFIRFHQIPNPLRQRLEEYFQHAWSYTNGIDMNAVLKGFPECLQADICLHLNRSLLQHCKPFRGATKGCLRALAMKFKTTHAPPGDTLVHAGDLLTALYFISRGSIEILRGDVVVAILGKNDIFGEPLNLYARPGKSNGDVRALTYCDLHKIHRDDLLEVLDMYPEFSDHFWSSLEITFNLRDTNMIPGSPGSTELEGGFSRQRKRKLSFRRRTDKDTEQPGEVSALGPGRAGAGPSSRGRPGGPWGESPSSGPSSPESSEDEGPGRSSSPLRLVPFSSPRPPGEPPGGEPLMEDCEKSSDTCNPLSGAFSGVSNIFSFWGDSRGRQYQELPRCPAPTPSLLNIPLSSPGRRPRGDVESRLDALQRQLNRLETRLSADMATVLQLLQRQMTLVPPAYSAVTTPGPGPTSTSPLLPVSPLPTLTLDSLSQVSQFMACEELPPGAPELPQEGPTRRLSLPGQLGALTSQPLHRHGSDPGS
The next data set deals with HEP G2. Kind of data set: IC50 with HEP G cells (toxicity). The class given is cell-based, human. The settings on record: not toxic.
Another data set deals with T1, bovine cytochrome bc (Bos taurus, UniProt P00157).
T1 construct: Whole bovine heart was collected directly from slaughter and transported on ice to the cold room; from tissue; host or cells: bovine heart mitochondria, DDM-solubilised, column-purified
Kind of data set: Binding assays with bovine cytochrome bc1.

Take `Cc1[nH]c2c(c(=O)c1-c1ccc(Oc3ccccc3)cc1)CCCC2` [MJM170]: the “MDCK-MDR1 Efflux Ratio” value with MDCK-MDR1 cells turned out to be 1.23. The “cross-resistance in cytochrome b drug-resistant mutant lines” value in the data set on P. falciparum Dd2 (Dd2 G33A and Dd2 G33V) was “without cross-resistance”. Also, the negative logarithm of the EC50 (pEC50) with P. falciparum Dd2 (Plasmodium falciparum, DD2) is 7.53. In addition, the “inhibition of parasite supplemented with yeast cytosolic DHODH” value in the data set with P. falciparum Dd2 (scDHODH line) is “cannot inhibit”. Also, the “reduction of EGS bradyzoites in cysts in vitro” value in data set [1] was “markedly reduces EGS bradyzoites in cysts”. In data set [1] (Toxoplasma gondii, read-out: Brady IC50), the negative logarithm of the IC50 (pIC50) was 5.00 to 6.00. Moreover, the negative logarithm of the IC50 (pIC50) in data set [1] (Toxoplasma gondii, read-out: T. gondii Bradyzoite IC50) is 5.40. In the data set on Dd2 parasites, the “combination effect with BRD6323” value was “Antagonism”, the “combination effect with atovaquone” value is “modest synergy; also recorded: modestly synergistic; also recorded: Slight synergy” and the “combination effect with cycloguanil” value is listed as “additive effect”.

Turning to `Cc1[nH]c2c(c(=O)c1-c1ccc(Oc3ccc(OC(F)(F)F)cc3)cc1)CCCC2` [JAG21, 2-methyl-3-(4-(4-(trifluoromethoxy)phenoxy)phenyl)-5,6,7,8-tetrahydroquinolin-4(1H)-one], the “hERG profile” value at hERG is recorded as “clean”. In addition, the “toxicity to human HepG cells” value in the data set with HEP G2 is greater than 17 µM. In data set [1] (1 μM and 10 μM, EGS), the “reduction in the number of true cysts and small organisms” value was “statistically significant reduction”. Also, the IC90 in data set [1] (Toxoplasma gondii, read-out: IC 90 against bradyzoites) was determined as 500 nM. Moreover, the Pseudocysts in data set [1] (part a, 1 μM) is given as 29 ± 6; in data set [1] (part a, 10 μM), 25.5 ± 5.1; in data set [1] (part b, 1 μM) it was 2955; in data set [1] (part b, 10 μM), 2638. Also, the Small organisms in data set [1] (part a, 1 μM) turned out to be 90.5 ± 33.5; in data set [1] (part a, 10 μM), 73.25 ± 30.9; in data set [1] (part b, 1 μM) it was 9734; in data set [1] (part b, 10 μM), 7309. Further, the “True Cysts” value came out at 0.5 ± 0.6 in data set [1] (part a, 1 μM); 0.25 ± 0.5 in data set [1] (part a, 10 μM); 54 in data set [1] (part b, 1 μM); 22 in data set [1] (part b, 10 μM). Further, the “inhibition of bovine Cytbc1” value at bovine cytochrome bc is “but not fully”. The “binding affinity to bovine cytochrome bc” value on bovine cytochrome bc (in comparison with previous compounds) is “lower binding affinity”.

Usually pEC50 stands for the negative decadic logarithm of the EC50, by convention in mol/L. Low readings indicate a high EC50, high ones a low EC50. One may read the pIC50 as the IC50 on a negative log10 scale, so that one unit is a factor of ten.
